# Results published in patent publication US20230103444A1 (The Regents of the University of Colorado, a Body Corporate, priority 2020, published 2023).
# pIC50: −log10 of the molar value. Read-outs that look alike come from different tables or passages of the source.
# Key:
# SW620 tumor organoids [1] = assay: Synergy studies with SN38 (LOEWE synergy scores); assay type: cell-based, human; parameters: key to LOEWE Synergy Score: % response beyond expectation; <-10 antagonism, -10–10 additive, >10 synergy; settings: for LOEWE Synergy Score: compound at its IC50 (6: 5 μM; 6.3, 6.11: 3 μM)
# Protocol: (§1) Cell based cytotoxicity dose response and combination studies. […] Plates were then incubated for 3 days before treatment.
# (e.g., synergy score 20 corresponds to 20% of response beyond expectation). According to our experience, the synergy scores near 0 gives limited confidence on synergy or antagonism.
# When the synergy score is: • Less than −10: the interaction between two drugs is likely to be antagonism; • From −10 to 10: the interaction between two drugs is likely to be additivity; • Larger than 10: the interaction between two drugs is likely to be synergy.
# [2] = Human microsomal stability; assay type: in vitro ADME; settings: human microsomes, Table 6, read-out: Microsomal stability Human t1/2
# [3] = Pharmacokinetics in CD-1 mice; settings: oral gavage (p.o.) 50 mg/kg
# Protocol: Whole blood was harvested at specific time points and the separated plasma frozen at −80° C. for storage or used for LC-MS/MS analysis.
# SW620 tumor organoids [4] = assay: Tumor organoid cytotoxicity (CellTiter-Glo 3D); settings: Homo sapiens
# [5] = Mouse liver microsome stability; settings: CD-1, mouse, liver microsomes, pH 7.4, Microsomal stability Mouse t1/2 (min), Table 6
# Protocol: Microsome stability. CD-1 mouse microsomes were commercially purchased and the reactions were performed as previously described. […] The master mix was pre-incubated at 37° C. for 5 min, then 1 mM NADPH was added to start the microsomal activity reaction and maintained at 37° C. throughout the time course. Reactions were stopped at 0, 5, 15, 30, 45, and 60 min by adding 200 μL acetonitrile and analyzed by mass spectrometry. The appropriate microsome controls were also performed in the same reaction conditions.
# [6] = test system: CRC042 patient-derived tumor organoids; assay: Patient tumor organoid cytotoxicity; assay type: cell-based; settings: Homo sapiens; single agent, Table 4A
# [7] = test system: SW620 quasi-mesenchymal (GFP+) tumor xenografts; assay: Antitumor activity by oral gavage against SW620 quasi-mesenchymal (GFP+) xenografts; assay type: in vivo, athymic nude mice
# Protocol: (Esquer et al., 2021) Five days after cell injection, injected mice were randomized into three groups for treatment (Tx). Group 1 (12 mice) received control treatment of gavage vehicle (10% DMSO, 90% PEG 400 (polyethylene glycol 400) by volume). […] Mice were treated once a day, 5 days a week PO (via oral gavage). Mice were weighed and tumor volume assessed twice a week by caliper measurement as illustrated in FIGS. 21A and 21B. At sacrifice, tumors were weighed and measured. In addition, gross observations on condition of mice were made and samples of plasma, tumors, liver spleen and kidneys were collected for further assessment, e.g., drug quantification and toxicity assessment.
# HCT116 tumor organoids = assay: Tumor organoid cytotoxicity (CellTiter-Glo 3D); assay type: cell-based, human; settings: Homo sapiens
# Protocol: as §1
# Cell Line Tumor Organoid Culture.
# (§2) Tumor Organoid Cytotoxicity.
# [8] = test system: CRC102 patient-derived tumor organoids; assay: Patient tumor organoid cytotoxicity; assay type: cell-based; settings: Homo sapiens; single agent, Table 4A
# Protocol: Patient Cell Tumor Organoid Culture. CRC048 and CRC102 patient cell samples were expanded and cultured as PDTOs using reported methodologies and reagents. (Drost et al., 2016; Sato et al., 2011) Briefly, patient cells were washed with PBS, digested with TrypLE, and filtered through 100 μm cell strainer before used in 3D cell culture. Patient cells were seeded at 5,000 cells per well in 96-well plates, coated with 2% Matrigel, and allowed to self-assemble as PDTOs over 72 h.
# as §2
# SW620 tumor organoids [9] = test system: SW620 tumor organoids
# [10] = combination of 6.11 and irinotecan
# Protocol for SW620 tumor xenografts: In vivo studies. […] Body weight and tumor volumes were monitored 2×/week. […] In addition, irinotecan was administered i.p. at 50 mg/kg.
structure (smiles),measurement,setting,value
"Cc1cc(Nc2ccc(NC(=O)Cc3cc(Br)cs3)cc2)nc(N2CCCC2)n1 [Compound 6.11, 2-(4-bromothiophen-2-yl)-N-(4-((6-methyl-2-(pyrrolidin-1-yl)pyrimidin-4-yl)amino)phenyl)-acetamide]",LOEWE Synergy Score,SW620 tumor organoids [1]; SN38 0.64 nM,46
same,LOEWE Synergy Score,SW620 tumor organoids [1]; SN38 16 nM,52
same,LOEWE Synergy Score,SW620 tumor organoids [1]; SN38 80 nM,49
same,LOEWE Synergy Score,SW620 tumor organoids [1]; SN38 400 nM,48
same,LOEWE Synergy Score,SW620 tumor organoids [1]; SN38 2000 nM,36
same,LOEWE Synergy Score,SW620 tumor organoids [1]; SN38 10000 nM,25
same,LOEWE Synergy Score,SW620 tumor organoids [1]; SN38 […],54
same,"synergism with irinotecan (and SN38), in words",SW620 tumor organoids [1]; killing SW620 tumor organoids,synergism
same,half-life,[2],4.38 h
same,"oral bioavailability, uptake in the plasma",[3],44%
same,IC50,"SW620 tumor organoids [4]; SW-620, 72 h, read-out: 3 D Cytotoxicity 72 hr IC50 (μM) SW620",2.6 µM
same,pIC50,"SW620 tumor organoids [4]; SW-620, read-out: IC50 of cytotoxicity in SW620 cells",> 5.00
same,IC50,"SW620 tumor organoids [4]; SW-620, read-out: Tumor Organoid Cytotoxicity IC50 (μM) SW620",2.6 µM
same,half-life at 10 μM,[5],0.954 h
same,"tumor volume, combination with irinotecan","SW620 tumor xenografts; 6.11 1×/day + irinotecan 50 mg/kg i.p., up to 20 days, M-phenotype xenografts, vs irinotecan alone or control",significantly inhibits colorectal cancer SW620 tumor xenografts
same,"tumor volume after the last treatment, combination with irinotecan","SW620 tumor xenografts; 6.11 + irinotecan vs irinotecan alone, last treatment day 33",significantly inhibits colorectal SW620 tumors beyond the last treatment
same,"survival of tumor-bearing mice, combination with irinotecan","SW620 tumor xenografts; 6.11 + irinotecan, compared to irinotecan alone and control",significantly increases the survival
same,"difference in tumor volume, irinotecan alone vs combination, 8 days post treatment",SW620 tumor xenografts; [10],3.4 fold
same,drop of tumor volume post treatment,SW620 tumor xenografts; [10],~1.5 fold
same,IC50,[6],4.5 µM
same,mouse body weight,[7]; oral gavage 75 and 125 mg/kg vs vehicle,no significant difference in body weight
same,tumor volume,"[7]; oral gavage 75 and 125 mg/kg, once a day 5 days a week, 27 days",significant dose dependent decrease in tumor volume
same,IC50,"HCT116 tumor organoids; HCT-116, 72 h, Table 6, read-out: 3 D Cytotoxicity 72 hr IC50 (μM) HCT116",3.5 µM
same,IC50,"HCT116 tumor organoids; HCT-116, single agent, Table 4A, read-out: Tumor Organoid Cytotoxicity IC50 (μM) HCT116",3.48 µM
same,IC50,[8],8.38 µM
"Cc1cc(Nc2ccc(NC(=O)Cn3cnc4ccccc43)cc2)nc(N2CCCC2)n1 [Compound 6.28, 2-(1H-benzo[d]imidazole-1-yl)-N-(4-((6-methyl-2-(pyrrolidin-1-yl)pyrimidin-4-yl)amino)phenyl) acetamide]",pIC50,SW620 tumor organoids [9],< 4.52
